Laboratory results from US20050002876A1, “Oral care methods and products” (priority 2003, published 2005).

Tested on: human umbilical vein endothelial cells (HUVEC)
Test: Copper-induced IL-8 release from HUVEC (IL-8 ELISA)
Assay type: cell-based

Structure (SMILES)	IL-8 secretion as compared to controls incubated with water (50 μM CuCl2, 24 hours) [fold]	IL-8 secretion caused by CuCl2 (50 μM CuCl2 + 50, 100, 150 or 250 μM Syprine trientine hydrochloride, 24 hours, serum-free medium)
[Cl][Cu][Cl] [CuCl2]	> 2	–
NCCNCCNCCN [trientine, N,N′-bis(2-aminoethyl)-1,2-ethanediamine]	–	significantly inhibited copper-induced endothelial cell IL-8 secretion
